Consider 9 compounds from ChEMBL document CHEMBL4130617, “Prenylated 2-Phenoxychromones and Flavonoids from Epimedium brevicornum and Revised Structures of Epimedonins A and B” (J Nat Prod, 2018).

Test [1] deals with HL-60. The test is described as follows: Growth inhibition of human HL60 cells at 40 uM after 48 hrs by MTS assay relative to control. The settings on record: HL-60, 48 h, read-out: GI. The test is classed as functional. (Formazan colour is commonly taken as a measure of viable cells.)
In test [2] the test system is SMMC-7721. The test is described as follows: Growth inhibition of human SMMC7721 cells at 40 uM after 48 hrs by MTS assay relative to control. The test is classed as functional. The settings on record: SMMC-7721, 48 h, read-out: GI.
In test [3] the test system is A549. Description: Growth inhibition of human A549 cells at 40 uM after 48 hrs by MTS assay relative to control. The test is classed as functional. The settings on record: A549, 48 h, read-out: GI.
Test [4] has as its system MCF7. The test is described as follows: Growth inhibition of human MCF7 cells at 40 uM after 48 hrs by MTS assay relative to control. The test is classed as functional. The settings on record: MCF7, 48 h, read-out: GI.
The subject of test [5] is SW480. The test is described as follows: Growth inhibition of human SW480 cells at 40 uM after 48 hrs by MTS assay relative to control. The test is classed as functional. The following applies: SW480, 48 h, read-out: GI.
Test [6] concerns HL-60. Description: Cytotoxicity against human HL60 cells after 48 hrs by MTS assay. The test is classed as functional, cell-based. The following applies: HL-60, 48 h.
Test [7] relates to SMMC-7721. The test is described as follows: Cytotoxicity against human SMMC7721 cells after 48 hrs by MTS assay. The test is classed as functional, cell-based. The following applies: SMMC-7721, 48 h.
Test [8] has as its system A549. Description: Cytotoxicity against human A549 cells after 48 hrs by MTS assay. The test is classed as functional, cell-based. The following applies: A549, 48 h.
Test [9] deals with MCF7. Description: Cytotoxicity against human MCF7 cells after 48 hrs by MTS assay. The test is classed as functional, cell-based. The settings on record: MCF7, 48 h.
Test [10] relates to SW480. The test is described as follows: Cytotoxicity against human SW480 cells after 48 hrs by MTS assay. The class given is functional, cell-based. The following applies: SW480, 48 h.

Each structure is given as a SMILES string. pIC50: −log10 of the molar value.

Usually pIC50 stands for the IC50 on a negative log10 scale, so that one unit is a factor of ten. A lower pIC50 goes with a large IC50. As to `COc1ccc(-c2oc3c(c(O)cc4oc(C(C)(C)O)cc43)c(=O)c2O[C@@H]2O[C@@H](C)[C@H](O)[C@@H](O)[C@H]2O[C@@H]2O[C@@H](C)[C@H](O)[C@@H](O)[C@H]2O)cc1`, the inhibition of growth at 40 µM with HL-60 [1], with SMMC-7721 [2], with A549 [3], in the test with MCF7 [4] and in the test on SW480 [5] was above 50% in each case. Besides, the negative-log IC50 (pIC50) in the test with HL-60 [6], in the test on SMMC-7721 [7], in the test with A549 [8], with MCF7 [9] and with SW480 [10] was below 5.00 in each case.

With `CC(C)=CCc1c(O)cc(O)c2c(=O)cc(Oc3ccc(O)cc3)oc12`, the inhibition of growth at 40 µM in the test with HL-60 [1], with SMMC-7721 [2], with A549 [3], with MCF7 [4] and in the test with SW480 [5] was above 50% throughout. For the same compound, the pIC50 with HL-60 [6], in the test with SMMC-7721 [7], with A549 [8], in the test on MCF7 [9] and with SW480 [10] was below 5.00 each time.

For `CC(C)=CCc1cc(Oc2cc(=O)c3c(O)cc(O)c(CC=C(C)C)c3o2)ccc1O`, the inhibition of growth at 40 µM with HL-60 [1], in the test on SMMC-7721 [2], with A549 [3], in the test on MCF7 [4] and in the test on SW480 [5] was above 50% throughout. Moreover, the negative-log IC50 (pIC50) with HL-60 [6], with SMMC-7721 [7], in the test with A549 [8], in the test on MCF7 [9] and in the test with SW480 [10] was below 5.00 each time.

Take `CC(C)=CCc1cc(Oc2cc(=O)c3c(O)cc(O)c(CC=C(C)C)c3o2)cc(CC=C(C)C)c1O`: the inhibition of growth at 40 µM with HL-60 [1], with SMMC-7721 [2], in the test with A549 [3], in the test on MCF7 [4] and in the test on SW480 [5] was above 50% each time. In addition, the pIC50 with HL-60 [6], in the test with SMMC-7721 [7], in the test with A549 [8], in the test on MCF7 [9] and in the test on SW480 [10] was below 5.00 in each case.

`C=C(C)C(O)Cc1c(O)cc(O)c2c(=O)cc(Oc3ccc(O)cc3)oc12` (stereo not given): the inhibition of growth at 40 µM in the test on HL-60 [1], in the test with SMMC-7721 [2], in the test on A549 [3], in the test with MCF7 [4] and in the test with SW480 [5] was above 50% each time. The pIC50 in the test on HL-60 [6], with SMMC-7721 [7], in the test on A549 [8], in the test with MCF7 [9] and in the test on SW480 [10] was below 5.00 in each case.

Turning to `CC(C)=CCc1cc(-c2cc(=O)c3c(O)cc(O)c(CC=C(C)C)c3o2)cc(CC=C(C)C)c1O`, the inhibition of growth at 40 µM with HL-60 [1], in the test with SMMC-7721 [2], with A549 [3], in the test with MCF7 [4] and in the test on SW480 [5] was above 50% throughout. In addition, the pIC50 in the test with HL-60 [6] was 5.37; in the test with SMMC-7721 [7] it was below 5.00; in the test with A549 [8] it was 5.15; in the test with MCF7 [9], 5.27; with SW480 [10], 5.29.

For the compound `COc1cc(O)c2c(=O)cc(Oc3ccc(O)cc3)oc2c1C[C@@H](O)C(C)(C)O`, the inhibition of growth at 40 µM in the test with HL-60 [1], in the test with SMMC-7721 [2], in the test on A549 [3], in the test with MCF7 [4] and in the test with SW480 [5] was above 50% throughout. The pIC50 in the test on HL-60 [6], in the test with SMMC-7721 [7], in the test on A549 [8], in the test with MCF7 [9] and in the test with SW480 [10] was below 5.00 throughout.

For the compound `COc1cc(O)c2c(=O)cc(Oc3ccc(O)cc3)oc2c1CC=C(C)C`, the inhibition of growth at 40 µM in the test on HL-60 [1], in the test with SMMC-7721 [2], in the test on A549 [3], in the test with MCF7 [4] and with SW480 [5] was above 50% throughout. The pIC50 with HL-60 [6], with SMMC-7721 [7], with A549 [8], with MCF7 [9] and in the test on SW480 [10] was below 5.00 each time.

For `CC(=O)O[C@H]1C(=O)[C@@]2(C)[C@H]([C@H](OC(=O)c3ccccc3)[C@]3(O)C[C@H](OC(=O)[C@H](O)[C@@H](NC(=O)c4ccccc4)c4ccccc4)C(C)=C1C3(C)C)[C@]1(OC(C)=O)CO[C@@H]1C[C@@H]2O` [PACLITAXEL], the pIC50 with HL-60 [6], with SMMC-7721 [7], in the test on A549 [8], with MCF7 [9] and in the test on SW480 [10] was above 8.10 throughout.
